Results taken from PMC10511702, “Design, molecular modelling and synthesis of novel benzothiazole derivatives as BCL-2 inhibitors” (Scientific Reports, 2023).

What was measured:
[1] = molecular target: T1, recombinant BCL-2 (Homo sapiens, UniProt P10415); assay: In vitro BCL-2 inhibitory activity, TR-FRET assay (BPS Bioscience); assay type: binding; conditions: for IC50: 5 concentrations 1 nM-10 µM; for inhibition at 10 µM: single dose of 10 µM
T1 construct: purchased BPS Bioscience 50272
Description: The in vitro enzyme inhibition determination for the synthesized compounds was carried out in BPS Bioscience Corporation, San Diego, CA, USA (www.bpsbioscience.com). […] The assay was performed by TR-FRET technology using a recombinant BCL-2 and a peptide- ligand substrate. The TR-FRET signal from the assay is correlated with the amount of Ligand binding to BCL-2. […] All of the binding reactions were conducted at room temperature. […] The reaction mixture incubated for 180 min prior to reading the TR-FRET signal. For the background, ligand was replaced with assay buffer. Fluorescence signals for both the donor and acceptor dyes were measured using a Tecan Infinite M1000 plate reader. TR-FRET was recorded as the ratio of the fluorescence of the acceptor and the donor dyes (acceptor/donor). Binding experiments were performed in duplicate at each concentration. The TR-FRET data were analyzed using the computer software, Graphpad Prism. In the absence of the compound in wells containing BCL-2 ligand, the TR-FRET signal (Ft) in each data set was defined as 100% activity. In wells without peptide ligand, the TR-FRET signal (Fb) in each data set was defined as 0% activity. The percent activity in the presence of each compound was calculated according to the following equation: % activity = [(F − Fb)/ (Ft − Fb)] × 100, where F = the TR-FRET signal in the presence of the compound. The percent inhibition was calculated according to the following equation: % inhibition = 100—% activity. IC50 determination for target compounds against BCL-2 was calculated. […] The IC50 value was determined by the concentration causing a half-maximal percent activity.

[2] = test system: NCI leukemia cell line; assay: NCI in vitro anti-proliferative screen, leukemia panel as a whole; assay type: cell-based, human; conditions: single dose of 10 µM
Description: (§1) The national cancer institute (NCI) in vitro anticancer screening is a two-stage process, beginning with the evaluation of the selected compounds 13c and 13d against NCI leukemia cell line at a single dose of 10 µM. The human leukemia cell line was obtained and maintained at the NCI. The output from the single dose screen is reported as a mean graph. The detailed assay protocol is discussed in the supporting material.
This assay was performed for compounds 13c and 13d by the Developmental Therapeutics Program (DTP) of the National Cancer Institute (NCI), division of cancer treatment and diagnosis, NIH, Bethesda, Maryland, USA (www.dtp.nci.nih.gov). The operation of this screen utilizes leukemia human tumor cell line[37]. […]
Results for the two compounds were reported as a mean graph of the percent growth of the treated cells when compared to the untreated control cells. The results are expressed as cell growth percent for the tested compounds on each of the used NCI cell line panels. […]
Following drug addition, the plates are incubated for an additional 48 hrs at 37°C, 5 % CO2, 95 % air, and 100 % relative humidity. […] Bound stain is subsequently solubilized with 10 mMtrizma base, and the absorbance is read on an automated plate reader at a wavelength of 515 nm. […]

[3] = test system: RPMI-8226; assay: NCI in vitro anti-proliferative single dose screen; assay type: cell-based, human; conditions: RPMI-8226, single dose of 10 µM
Description: as §1
(§2) This assay was performed for compounds 13c and 13d by the Developmental Therapeutics Program (DTP) of the National Cancer Institute (NCI), division of cancer treatment and diagnosis, NIH, Bethesda, Maryland, USA (www.dtp.nci.nih.gov). The operation of this screen utilizes leukemia human tumor cell line[37]. The human tumor cell lines of the cancer screening panel were grown in RPMI 1640 medium containing 5% fetal bovine serum and 2 mM L-glutamine.
(§3) Results for the two compounds were reported as a mean graph of the percent growth of the treated cells when compared to the untreated control cells. The results are expressed as cell growth percent for the tested compounds on each of the used NCI cell line panels.
(§4) The human tumor cell lines of the cancer screening panel were grown in RPMI 1640 medium containing 5% fetal bovine serum and 2 mM L-glutamine. For a typical screening experiment, cells are inoculated into 96 well microtiter plates in 100 µL at plating densities ranging from 5,000 to 40,000 cells/well depending on the doubling time of individual cell lines. After cell inoculation, the microtiter plates are incubated at 37° C, 5 % CO2, 95 % air and 100 % relative humidity for 24 hrs prior to addition of experimental drugs. After 24 hrs, two plates of each cell line are fixed in situ with trichloroacetic acid (TCA), to represent a measurement of the cell population for each cell line at the time of drug addition (Tz). Experimental drugs are solubilized in dimethyl sulfoxide at 400-fold the desired final maximum test concentration and stored frozen prior to use. At the time of drug addition, an aliquot of frozen concentrate is thawed and diluted to twice the desired final maximum test concentration with complete medium containing 50 µg/mL gentamicin. Additional four, 10-fold or ½ log serial dilutions are made to provide a total of five drug concentrations plus control. Aliquots of 100 µl of these different drug dilutions are added to the appropriate microtiter wells already containing 100 µl of medium, resulting in the required final drug concentrations.
(§5) Following drug addition, the plates are incubated for an additional 48 hrs at 37°C, 5 % CO2, 95 % air, and 100 % relative humidity. For adherent cells, the assay is terminated by the addition of cold TCA. Cells are fixed in situ by the gentle addition of 50 µl of cold 50 % (w/v) TCA (final concentration, 10 % TCA) and incubated for 60 minutes at 4°C. The supernatant is discarded, and the plates are washed five times with tap water and air dried. Sulforhodamine B (SRB) solution (100 µl) at 0.4 % (w/v) in 1 % acetic acid is added to each well, and plates are incubated for 10 minutes at room temperature. After staining, unbound dye is removed by washing five times with 1 % acetic acid and the plates are air dried. Bound stain is subsequently solubilized with 10 mMtrizma base, and the absorbance is read on an automated plate reader at a wavelength of 515 nm. For suspension cells, the methodology is the same except that the assay is terminated by fixing settled cells at the bottom of the wells by gently adding 50 µl of 80 % TCA (final concentration, 16 % TCA).
(§6) Using the seven absorbance measurements [time zero, (Tz), control growth, (C), and test growth in the presence of drug at the five concentration levels (Ti)], the percentage growth is calculated at each of the drug concentrations levels. Percentage growth inhibition is calculated as: […]

[4] = test system: MOLT-4; assay: NCI in vitro anti-proliferative single dose screen; assay type: cell-based, human; conditions: MOLT-4, single dose of 10 µM
Description: as §1, §2, §3, §4, §5, §6

[5] = test system: SR; assay: NCI in vitro anti-proliferative single dose screen; assay type: cell-based, human; conditions: single dose of 10 µM; for Cell growth percent: SR
Description: as §1, §2, §3, §4, §5, §6

[6] = test system: CCRF-CEM; assay: NCI in vitro anti-proliferative single dose screen; assay type: cell-based, human; conditions: single dose of 10 µM
Description: as §1, §2, §3, §4, §5, §6

[7] = test system: K-562; assay: NCI in vitro anti-proliferative single dose screen; assay type: cell-based, human; conditions: K-562, single dose of 10 µM
Description: as §1, §2, §3, §4, §5, §6

[8] = test system: HL-60(TB); assay: NCI in vitro anti-proliferative single dose screen; assay type: cell-based, human; conditions: single dose of 10 µM
Description: as §1, §2, §3, §4, §5, §6

[9] = test system: BCL-2; conditions: cited from earlier work

T1 sequence (P10415 whole entry): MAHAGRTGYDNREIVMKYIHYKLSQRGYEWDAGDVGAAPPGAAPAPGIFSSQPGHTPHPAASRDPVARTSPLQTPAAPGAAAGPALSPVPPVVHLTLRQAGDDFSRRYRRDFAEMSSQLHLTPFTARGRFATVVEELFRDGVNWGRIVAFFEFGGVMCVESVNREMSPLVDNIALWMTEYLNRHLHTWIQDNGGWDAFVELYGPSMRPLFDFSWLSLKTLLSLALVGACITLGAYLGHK

| Structure (SMILES) | melting point | inhibition at 10 µM [1] | also measured |
| --- | --- | --- | --- |
| Cc1ccc(COc2ccc(NC(=O)c3ccc4nc(NC(=O)c5ccc(NCCc6ccccc6)c([N+](=O)[O-])c5)sc4c3)cc2)cc1 [13c, N-(4-((4-Methylbenzyl)oxy)phenyl)-2-(3-nitro-4-(phenethylamino)benzamido)benzo-[d]thiazole-6-carboxamide] | 138 to 140 °C | 84% | IC50 [1]: 471 nM; inhibition against the used leukemia cell line (in words) [2]: poor inhibition; Cell growth percent [3]: 87.5%; Cell growth percent [4]: 94.74%; Cell growth percent [5]: 82.5%; Cell growth percent [6]: 93.91%; Cell growth percent [7]: 87.23%; Cell growth percent [8]: 75.74% |
| O=C(Nc1ccc(OCc2ccc(C(F)(F)F)cc2)cc1)c1ccc2nc(NC(=O)c3ccc(NCCc4ccccc4)c([N+](=O)[O-])c3)sc2c1 [13d, N-(4-((4-Trifluoromethylbenzyl)oxy)phenyl)-2-(3-nitro-4-(phenethylamino)benzamido)-benzo[d]thiazole-6-carboxamide] | 218 to 220 °C | – | IC50 [1]: 363 nM; Cell growth percent [3]: 69.86%; Cell growth percent [4]: 74.37%; inhibition at 10 µM ([5]; Homo sapiens, leukemic SR cell lines, read-out: growth inhibition): 62.9%; Cell growth percent [5]: 37.13%; Cell growth percent [6]: 68.2%; Cell growth percent [7]: 67.92%; Cell growth percent [8]: 96.87% |
| O=C(Nc1cccc(Cl)c1)Nc1ccc2nc(NS(=O)(=O)c3ccc4ccccc4c3)sc2c1 [17b, N-(6-(3-(3-Chlorophenyl)ureido)benzo[d]thiazol-2-yl)naphthalene-2-sulfonamide] | ≥ 300 °C | 7% | – |
| O=C(Nc1cccc(Br)c1)Nc1ccc2nc(NS(=O)(=O)c3ccc4ccccc4c3)sc2c1 [17c, N-(6-(3-(3-Bromophenyl)ureido)benzo[d]thiazol-2-yl)naphthalene-2-sulfonamide] | ≥ 300 °C | 10% | – |
| COc1cccc(NC(=O)Nc2ccc3nc(NS(=O)(=O)c4ccc5ccccc5c4)sc3c2)c1 [17d, N-(6-(3-(3-Methoxyphenyl)ureido)benzo[d]thiazol-2-yl)naphthalene-2-sulfonamide] | ≥ 300 °C | 7% | – |
| Cc1cccc(NC(=O)Nc2ccc3nc(NS(=O)(=O)c4ccc5ccccc5c4)sc3c2)c1 [17e, N-(6-(3-(m-Tolyl)ureido)benzo[d]thiazol-2-yl)naphthalene-2-sulfonamide] | ≥ 300 °C | 0% | – |
| O=C(Nc1ccc(Br)cc1)Nc1ccc2nc(NS(=O)(=O)c3ccc4ccccc4c3)sc2c1 [17f, N-(6-(3-(4-Bromophenyl)ureido)benzo[d]thiazol-2-yl)naphthalene-2-sulfonamide] | ≥ 300 °C | > 60% | IC50 [1]: 2290 nM |
| O=C(Nc1ccc(Cl)c(C(F)(F)F)c1)Nc1ccc2nc(NS(=O)(=O)c3ccc4ccccc4c3)sc2c1 [17g, N-(6-(3-(4-Chloro-3-(trifluoromethyl)phenyl)ureido)benzo[d]thiazol-2-yl)naphthalene-2-sulfonamide] | ≥ 300 °C | 18% | – |
| O=C(Nc1ccc(Cl)c(Cl)c1)Nc1ccc2nc(NS(=O)(=O)c3ccc4ccccc4c3)sc2c1 [17h, N-(6-(3-(3,4-Dichlorophenyl)ureido)benzo[d]thiazol-2-yl)naphthalene-2-sulfonamide] | 290 to 292 °C | 0% | – |
| Cc1cc(Cl)ccc1NC(=O)Nc1ccc2nc(NS(=O)(=O)c3ccc4ccccc4c3)sc2c1 [17i, N-(6-(3-(4-Chloro-2-methylphenyl)ureido)benzo[d]thiazol-2-yl)naphthalene-2-sulfonamide] | 280 to 282 °C | 14% | – |
| Cc1ccc(NC(=O)Nc2ccc3nc(NS(=O)(=O)c4ccc5ccccc5c4)sc3c2)cc1Cl [17j, N-(6-(3-(3-Chloro-4-methylphenyl)ureido)benzo[d]thiazol-2-yl)naphthalene-2-sulfonamide] | ≥ 300 °C | 9% | – |
| CCCCc1c(-c2ccc(C(=O)NS(=O)(=O)c3ccc4ccccc4c3)cc2C(=O)N2CCc3ccccc3C2)c(CO)nn1-c1ccc(Oc2cccc(Cl)c2)cc1 [Compound 1] | 42 to 44 °C | – | IC50 [9]: 6 nM |
